From patent US8163909B2, “Substituted hydroxyethyl amine compounds as beta-secretase modulators and methods of use” (Amgen Inc., priority 2007, dated 2012)
Read-outs that look alike come from different tables or passages of the source. Blank lines part the entries; values can stand above or below the compound they belong to.

What was measured:
[1] = Microsomal stability assay, rat liver microsomes; conditions: rat liver microsomes;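 also: rat liver microsomes (0.25 mg/mL) with about 1 µM compound plus 1 mM NADPH, pH 7.4, 37 °C for 30 min, parent left measured by LC-MS/MS against 0 min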
[2] = biological target: CYP3A (Homo sapiens, UniProt P08684); conditions: CYP3A4 inhibition; for IC50: read-out: 3A4 IC50
Chain of CYP3A (P08684 2-503): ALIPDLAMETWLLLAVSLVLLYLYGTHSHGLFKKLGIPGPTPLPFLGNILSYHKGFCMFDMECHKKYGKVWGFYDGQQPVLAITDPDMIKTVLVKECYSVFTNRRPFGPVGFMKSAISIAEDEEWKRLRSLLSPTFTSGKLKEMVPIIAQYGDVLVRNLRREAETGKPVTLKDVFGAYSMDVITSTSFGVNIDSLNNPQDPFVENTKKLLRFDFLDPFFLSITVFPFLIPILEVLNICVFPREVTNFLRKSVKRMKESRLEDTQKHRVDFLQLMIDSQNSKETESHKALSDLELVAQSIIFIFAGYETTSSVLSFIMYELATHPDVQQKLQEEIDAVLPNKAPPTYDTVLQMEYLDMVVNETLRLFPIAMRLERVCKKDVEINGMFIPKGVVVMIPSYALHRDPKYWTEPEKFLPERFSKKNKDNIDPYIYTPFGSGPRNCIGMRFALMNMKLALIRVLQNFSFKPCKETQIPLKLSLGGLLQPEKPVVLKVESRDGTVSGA

[3] = test system: Aβ40 in conditioned medium of cells stably expressing Amyloid Precursor Protein (APP); assay: In vitro BACE cell-based assay (Aβ40 in conditioned medium, sandwich ELISA);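 also: compounds added as a dilution series, secreted peptide quantified by europium time-resolved fluorescence readout, potency fitted from percent of control versus compound concentration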
[4] = biological target: CYP2D6 (Homo sapiens, UniProt P10635); assay: CYP2D6 inhibition assay (bufuralol, pooled human liver microsomes)
Chain of CYP2D6 (P10635 whole entry): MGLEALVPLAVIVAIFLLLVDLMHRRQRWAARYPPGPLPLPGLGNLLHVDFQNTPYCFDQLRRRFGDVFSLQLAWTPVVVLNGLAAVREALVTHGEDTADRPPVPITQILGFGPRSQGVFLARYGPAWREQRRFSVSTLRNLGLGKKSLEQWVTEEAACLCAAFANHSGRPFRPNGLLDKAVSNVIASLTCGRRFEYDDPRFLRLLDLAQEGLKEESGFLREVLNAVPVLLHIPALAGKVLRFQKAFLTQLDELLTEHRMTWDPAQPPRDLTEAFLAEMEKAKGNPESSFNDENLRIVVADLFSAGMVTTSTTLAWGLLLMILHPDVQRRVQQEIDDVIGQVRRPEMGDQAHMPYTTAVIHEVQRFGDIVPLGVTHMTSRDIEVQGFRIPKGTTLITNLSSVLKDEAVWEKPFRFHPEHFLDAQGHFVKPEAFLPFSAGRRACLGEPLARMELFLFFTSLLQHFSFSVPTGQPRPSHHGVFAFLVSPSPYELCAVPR

[5] = biological target: Beta Secretase enzyme (BACE) (Homo sapiens, UniProt P56817); assay: In vitro enzymatic BACE FRET (fluorescence resonance energy transfer) assay; type: biochemical;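 also: fluorescence read after 1 h with 50 nM quenched peptide substrate spanning the BACE cleavage site, in pH 4.2 acetate buffer containing 10% DMSO and nonionic detergent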
Chain of Beta Secretase enzyme (BACE) (P56817 46-501): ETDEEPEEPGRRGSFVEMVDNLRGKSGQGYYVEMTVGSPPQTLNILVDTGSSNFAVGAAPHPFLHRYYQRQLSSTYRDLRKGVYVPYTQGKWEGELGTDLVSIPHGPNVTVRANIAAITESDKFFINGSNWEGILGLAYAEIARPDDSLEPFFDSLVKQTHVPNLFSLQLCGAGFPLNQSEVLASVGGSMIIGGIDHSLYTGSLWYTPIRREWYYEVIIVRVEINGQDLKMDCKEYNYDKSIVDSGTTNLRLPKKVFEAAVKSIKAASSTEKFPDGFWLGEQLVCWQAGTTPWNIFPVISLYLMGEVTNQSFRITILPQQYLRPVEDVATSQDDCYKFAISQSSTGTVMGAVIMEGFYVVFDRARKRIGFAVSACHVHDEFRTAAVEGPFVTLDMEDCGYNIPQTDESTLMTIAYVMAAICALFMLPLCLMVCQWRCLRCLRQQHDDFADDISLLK

[6] = Microsomal stability assay, human liver microsomes; conditions: human liver microsomes;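 also: pooled human liver microsomes at 0.25 mg/mL with 1 µM compound and NADPH at 37 °C, pH 7.4, for 30 min, unchanged parent quantified by LC-MS/MS against the 0 min sample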
[7] = rat, microsomes, 1 μM, pH 7.4
[8] = test system: Abeta peptide; assay: In vivo inhibition of beta-secretase (reduction of Abeta peptide in brain and cerebrospinal fluid); parameters: species or system rat; conditions: po; rat cerebrospinal fluid, orally administered at 30 mg/kg dose, measured after 4 hours; read-out: percent reduction of abeta peptide in the cerebrospinal fluid of the rat;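 also: abeta peptide quantified by sandwich ELISA with electrochemiluminescence readout in rat brain supernatant or CSF, relative to vehicle-dosed control animals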
[9] = human, microsomes, 1 μM, pH 7.4
[10] = biological target: CYP3A4 (CYP3A) (Homo sapiens, UniProt P08684); assay: in vitro; conditions: microsomes, pH 7.4
Chain of CYP3A4 (CYP3A) (P08684 2-503): as the sequence (P08684 2-503) above

[11] = read-out: 2D6 IC50, CYP2D6 inhibition

Structure (SMILES): CC(=O)N[C@@H](Cc1cc(F)cc(-c2nccs2)c1)[C@H](O)CN[C@H]1CC2(CCC2)Oc2ncc(CC(C)(C)C)cc21 [Example 435, N-((2S,3R)-4-((S)-2,2-spirocyclobutyl-6-neopentyl-3,4-dihydro-2H-pyrano[2,3-b]pyridin-4-ylamino)-1-(3-fluoro-5-(thiazol-2-yl)phenyl)-3-hydroxybutan-2-yl)acetamide]
- RLM [1]: 197 µL/min/mg
- IC50 [2]: 1400 nM
- IC50 ([3]; HEK cells, read-out: HEK cell assay (IC50)): 39 nM
- IC50 [4, 11]: 0.3 µM
- IC50 ([5]; read-out: BACE1 FRET assay (IC50)): 6 nM
- HLM [6]: 125 µL/min/mg

Structure (SMILES): COCC(=O)N[C@@H](Cc1ccc(F)cc1)[C@H](O)CN[C@H]1CC2(CCC2)Oc2c1cc(CC(C)(C)C)nc2-c1c[nH]cn1 [Example 529]
- RLM [7]: 40 µL/min/mg
- inhibition in vivo at 30 mg/kg [8]: 10 to 80%
- HLM [9]: 37 µL/min/mg
- IC50 [10]: 100 nM
- IC50 ([3]; Homo sapiens, HEK293, HEK cells, read-out: HEK cell assay): 12 nM
- IC50 ([4]; 2D6 IC50 (uM), CYP enzyme inhibition): 0.7 µM
- IC50 ([5]; BACE enzyme assay, read-out: BACE1 FRET assay): 23 nM

- RLM [7]: 86 µL/min/mg
- HLM [9]: 14 µL/min/mg
Structure (SMILES): C#Cc1cccc(C[C@H](NC(=O)COC)[C@H](O)CN[C@H]2C[C@]3(CCOC3)Oc3ncc(CC(C)(C)C)cc32)c1 [compound 868]

Structure (SMILES): COCC(=O)N[C@@H](Cc1cc(F)cc(F)c1)[C@H](O)CN[C@H]1CC2(CCC2)Oc2c1cc([C@H]1CC1(C)C)nc2-c1ccncc1 [compound 678]
- RLM [7]: 79 µL/min/mg
- HLM [9]: 23 µL/min/mg

Structure (SMILES): COCC(=O)N[C@@H](Cc1cc(F)cc(F)c1)[C@H](O)CN[C@H]1CC2(CCC2)Oc2c1cc([C@H]1CC1(C)C)nc2-c1ccncc1 [compound 703]
- RLM [7]: 118 µL/min/mg
- HLM [9]: 32 µL/min/mg
- 3A4 IC50 [2]: 200 nM

- RLM [7]: 101 µL/min/mg
- HLM [9]: 54 µL/min/mg
Structure (SMILES): COCC(=O)N[C@@H](Cc1cccc(-c2nccs2)c1)[C@H](O)CN[C@H]1C[C@]2(CCOC2)Oc2ncc(CC(C)(C)C)cc21 [compound 822]

- RLM [7]: 128 µL/min/mg
- HLM [9]: 82 µL/min/mg
Structure (SMILES): COCC(=O)N[C@@H](Cc1cccc(-c2nccs2)c1)[C@H](O)CN[C@H]1C[C@@]2(CCOC2)Oc2ncc(CC(C)(C)C)cc21 [compound 846, N-((1S,2R)-3-(((3S,4′S)-6′-(2,2-dimethylpropyl)-3′,4,4′,5-tetrahydrospiro[furan-3,2′-pyrano[2,3-b]pyridin]-4′-yl)amino)-2-hydroxy-1-(3-(1,3-thiazol-2-yl)benzyl)propyl)-2-methoxyacetamide]

Structure (SMILES): CC(=O)N[C@@H](Cc1ccc(F)c(-c2cscn2)c1)[C@H](O)CN[C@H]1CC2(CCC2)Oc2ccc(CC(C)(C)C)cc21 [Example 436, N-((2S,3R)-4-((S)-2,2-spirocyclobutyl-6-neopentyl-3,4-dihydro-2H-chromen-4-ylamino)-1-(4-fluoro-3-(thiazol-4-yl)phenyl)-3-hydroxybutan-2-yl)acetamide]
- RLM [1]: 78 µL/min/mg
- IC50 [2]: 200 nM
- IC50 ([3]; HEK cell-based assay IC50, read-out: HEK cell assay): 24 nM
- IC50 [4, 11]: 2.2 µM
- IC50 ([5]; BACE enzyme assay IC50, read-out: BACE1 FRET assay): 5 nM
- HLM [6]: 135 µL/min/mg

- RLM [7]: 171 µL/min/mg
- HLM [9]: 57 µL/min/mg
Structure (SMILES): COCC(=O)N[C@@H](Cc1cccc(-c2nccs2)c1)[C@H](O)CN[C@H]1C[C@@]2(CCOC2)Oc2ncc(CC(C)(C)C)cc21 [compound 823, N-((1S,2R)-3-(((3S,4′S)-6′-(2,2-dimethylpropyl)-3′,4,4′,5-tetrahydrospiro[furan-3,2′-pyrano[2,3-b]pyridin]-4′-yl)amino)-2-hydroxy-1-(3-(1,3-thiazol-2-yl)benzyl)propyl)-2-methoxyacetamide]
